Measurements as given in US7592308B2, “F3W variants of the lantibiotic mersacidin and its use” (priority 2004, dated 2009).
Converted amounts (≈) assume the structure as drawn. Read-outs that look alike come from different tables or passages of the source. Square brackets hold non-standard residues; d marks the D form. Ends that are not written are not given here. Dha = C=C(N)C(=O)O

Assays:
[1] = system: E. faecium 7131121; assay: MIC, two-fold serial dilution in broth; format: cell-based, Enterococcus faecium; settings: Table 8A; MHB + 50 μg/ml calcium; duplicate
Experimental: (§1) A selection of the variants produced in Example 1 above were tested further for activity against a range of bacteria. Minimum inhibitory concentrations (MICs) for all organisms with the exception of Streptococcus pneumoniae were determined by two-fold serial antibiotic dilutions in Mueller-Hinton broth (MHB) supplemented with 50 μg/ml calcium as calcium chloride dihydrate. Minimum inhibitory concentrations (MICs) for S. pneumoniae were determined by two-fold serial antibiotic dilutions in Brain Heart Infusion (BHI) broth supplemented with 50 μg/ml calcium as calcium chloride dihydrate. Antimicrobial agent stock solutions were prepared and stored according to NCCLS standard M7-A6.
(§2) Actively growing broth cultures were diluted to contain […] by adjusting to an absorbance of 0.2-0.3 at 600 nm, equivalent to the McFarland 0.5 standard. They were then diluted a further 1:100 in broth. The assays were performed in duplicate in sterile 96-well microtitre plates in a total volume of 200 μl (160 μl broth, 20 μl antibiotic, 20 μl inoculum) in a concentration range from 64 μg/ml to 0.06 μg/ml. The 12th well of the microtitre plate contained no antimicrobial agent. Vancomycin was used as a reference antibiotic for quality control. Plates were incubated aerobically, shaking, for 18-20 hours at 37° C. with the MIC defined as the lowest concentration of drug that produced no visible growth.

[2] = system: E. faecium 19579; assay: MIC, two-fold serial dilution in broth; format: cell-based, Enterococcus faecium; settings: Table 8A; MHB + 50 μg/ml calcium; duplicate
Experimental: as §1, §2

[3] = system: E. faecalis 29212; assay: MIC, two-fold serial dilution in broth; format: cell-based, Enterococcus faecalis; settings: Table 8A; MHB + 50 μg/ml calcium; duplicate
Experimental: as §1, §2

[4] = system: S. pneumoniae R6; format: cell-based, Streptococcus pneumoniae; settings: Table 8B; BHI broth + 50 μg/ml calcium; duplicate
Experimental: as §1, §2

[5] = system: S. aureus R33; format: cell-based, Staphylococcus aureus; settings: Table 8A; MHB + 50 μg/ml calcium; duplicate
Experimental: as §1, §2

[6] = system: S. aureus SH1000; format: cell-based, Staphylococcus aureus; settings: Table 8A; MHB + 50 μg/ml calcium; duplicate
Experimental: as §1, §2

[7] = system: S. epidermidis 11047; format: cell-based, Staphylococcus epidermidis; settings: Table 8B; MHB + 50 μg/ml calcium; duplicate
Experimental: as §1, §2

[8] = system: M. luteus 4698; format: cell-based, Micrococcus luteus
Experimental: as §1, §2

[9] = system: E. faecium 11.4103A; assay: MIC, two-fold serial dilution in broth; format: cell-based, Enterococcus faecium; settings: Table 8B; MHB + 50 μg/ml calcium; duplicate
Experimental: as §1, §2

[10] = system: S. pyogenes 16205; format: cell-based, Streptococcus pyogenes
Experimental: (§3) MIC tests were performed with some of the variants of Example 2 on a range of other organisms. The results are shown in Tables 9 and 10 (figures in μg/ml): […]

[11] = system: S. pyogenes 13608; format: cell-based, Streptococcus pyogenes
Experimental: as §3

[12] = system: E. faecium 4147-1; format: cell-based, Enterococcus faecium; settings: 4147-1
Experimental: as §3

[13] = system: E. faecium 4147 VRE; format: cell-based, Enterococcus faecium; settings: 4147 VRE
Experimental: as §3

[14] = system: M. luteus; settings: data of Szekat et al.; cited from earlier work
[15] = system: E. coli SM1411; assay: MIC, two-fold serial dilution in broth; format: cell-based; settings: Table 8B; MHB + 50 μg/ml calcium; duplicate
Experimental: as §1
as §2, with “Plates were incubated aerobically, shaking, for 18-20 hours at 37° C. with the MIC defined as the lowest concentration of drug that produced no visible growth.” left out

[16] = system: S. aureus 1012-13 MRSA; format: cell-based, Staphylococcus aureus
Experimental: as §3

[17] = system: S. aureus CS; format: cell-based, Staphylococcus aureus
Experimental: as §3

[18] = system: S. aureus COL MRSA; format: cell-based, Staphylococcus aureus
Experimental: as §3

[19] = system: S. aureus SG511; format: cell-based, Staphylococcus aureus
Experimental: as §3

Compound	MIC E. faecium 7131121 [1]	MIC E. faecium 19579 [2]	MIC E. faecalis 29212 [3]	MIC S. pneumoniae R6 [4]	MIC S. aureus R33 [5]	MIC S. aureus SH1000 [6]	MIC S. epidermidis 11047 [7]	MIC M. luteus 4698 ([8]; Table 8B, MHB + 50 μg/ml calcium, duplicate)	MIC E. faecium 11.4103A [9]	MIC S. pyogenes 16205 [10]	MIC S. pyogenes 13608 [11]	MIC M. luteus 4698 [8]; 4698	MIC E. faecium 4147-1 [12]	MIC E. faecium 4147 VRE [13]	MIC against M. luteus [14]	MIC E. coli SM1411 [15]	MIC S. aureus 1012-13 MRSA [16]	MIC S. aureus CS [17]	MIC S. aureus COL MRSA [18]	MIC S. aureus SG511 [19]
G9S: mersacidin variant (CTFTLPGGSGVCTLT[Dha]ECIC; thioether (positions not given here); not fully specified; UniProt P43683 49-68, looked up, variant G9S)	>64, >64 μg/ml	>64, >64 μg/ml	>64, >64 μg/ml	>64, >64 μg/ml	>64, >64 μg/ml	>64, >64 μg/ml	>64, >64 μg/ml	–	–	–	–	–	–	–	–	–	–	–	–	–
G10V: mersacidin variant (CTFTLPGGGVVCTLT[Dha]ECIC; thioether (positions not given here); not fully specified; UniProt P43683 49-68, looked up, variant G10V)	–	>64, >64 μg/ml	>64, >64 μg/ml	–	>64, >64 μg/ml	>64, >64 μg/ml	–	<4, <4 μg/ml	>64, >64 μg/ml	–	–	–	–	–	–	–	–	–	–	–
C=C1NC(=O)C2NC(=O)[C@H](CC(C)C)NC(=O)C(NC(=O)[C@@H]3CSC(C)C(NC(=O)[C@H](Cc4ccccc4)NC(=O)C4NC(=O)[C@@H](N)CSC4C)C(=O)N[C@@H](CC(C)C)C(=O)N4CCC[C@H]4C(=O)NCC(=O)NCC(=O)NCC(=O)NCC(=O)N[C@@H](C(C)C)C(=O)N3)C(C)SC[C@H](NC(=O)[C@H](CCC(=O)O)NC1=O)C(=O)N[C@@H]([C@@H](C)CC)C(=O)NC=CSC2C (stereo partly shown) [Mersacidin, mersacidin]	–	–	–	<4, <4 μg/ml	–	–	–	–	–	0.5 mg/L (≈ 0.274 µM)	0.25 mg/L (≈ 0.137 µM)	0.5 µg/mL (≈ 0.274 µM)	64 mg/L (≈ 35 µM)	64 mg/L (≈ 35 µM)	0.195 mg/L (≈ 0.107 µM)	>64, >64 μg/ml	8 mg/L (≈ 4.38 µM)	4 mg/L (≈ 2.19 µM)	16 mg/L (≈ 8.76 µM)	2 mg/L (≈ 1.1 µM)
